pEC50: −log10 of the molar value. *1 amine or outer side, *2 acyl side, *3 side chain or, on linkers, in order; H or OH if unused. Where a SMILES comes first, the peptide text is derived from it. Bridges are numbered along the chain shown (N, C = ends). [ ]: non-standard residue; d: D form. The star is where a group is joined. C20 diacid = O=C(O)CCCCCCCCCCCCCCCCCCC(=O)*; γGlu = O=C(O)[C@H](CCC(=O)[*:2])N[*:1]; Hyp = O=C(O)[C@@H]1C[C@@H](O)CN1; NMeI = CC[C@H](C)[C@H](NC)C(=O)O; Aad = N[C@@H](CCCC(=O)O)C(=O)O; Sar = CNCC(=O)O
Experiments:
[1] = molecular target: T1, human amylin receptor 3 (hAMYR3), hCTR2 co-expressed with hRAMP3 (Homo sapiens, UniProt O60896+P30988); experiment: hAMYR3 cAMP assay (AlphaScreen) in COS7 cells; type: cell-based; conditions: cAMP induction, COS7 cells expressing hAMYR3; Table 1; read-out: hAMYR3 EC50
T1 construct: expressed in transfected cells
T1 sequence (P30988 25-474): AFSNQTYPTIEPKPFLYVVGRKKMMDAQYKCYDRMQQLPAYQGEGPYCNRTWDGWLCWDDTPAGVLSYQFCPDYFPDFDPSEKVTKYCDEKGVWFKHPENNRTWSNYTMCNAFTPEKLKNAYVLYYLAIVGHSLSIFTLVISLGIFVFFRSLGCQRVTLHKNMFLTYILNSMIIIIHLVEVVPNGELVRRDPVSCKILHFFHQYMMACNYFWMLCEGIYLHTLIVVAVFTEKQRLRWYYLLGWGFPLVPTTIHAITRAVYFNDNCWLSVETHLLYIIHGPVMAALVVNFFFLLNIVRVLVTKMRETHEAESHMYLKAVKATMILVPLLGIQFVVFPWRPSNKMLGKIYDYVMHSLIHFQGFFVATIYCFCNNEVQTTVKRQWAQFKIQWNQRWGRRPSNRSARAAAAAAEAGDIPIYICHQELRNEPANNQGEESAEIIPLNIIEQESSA
T1 sequence (O60896 24-148 partner): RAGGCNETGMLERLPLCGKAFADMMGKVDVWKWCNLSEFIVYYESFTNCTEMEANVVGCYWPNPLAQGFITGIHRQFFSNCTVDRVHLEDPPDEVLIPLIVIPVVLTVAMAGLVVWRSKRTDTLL
How it was run: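 EC50 values derive from 4PL curve fits of cAMP (AlphaScreen) in lysates of RAMP-naive COS7 cells stably carrying hCTR2 plus hRAMP3. Peptide dilution series were applied for 15 min at 37 °C in pH 7.4 Tyrode buffer containing 100 µM IBMX and 0.1% casein.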

[2] = molecular target: T2, human calcitonin receptor (hCTR2) (Homo sapiens, UniProt P30988); experiment: hCTR2 cAMP assay (AlphaScreen) in COS7 cells; type: cell-based; conditions: cAMP induction, COS7 cells expressing hCTR2; Table 1; read-out: hCTR2 EC50
T2 construct: expressed in transfected cells
T2 sequence (P30988 25-474): T1 sequence (P30988 25-474)
How it was run: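 cAMP induction, read by AlphaScreen after lysis, gives EC50 values via 4PL curve fitting. Peptides were applied at rising concentrations for 15 min at 37 °C, with IBMX and 0.1% casein in HEPES-buffered Tyrode pH 7.4, to COS7 cells (no endogenous RAMPs) stably expressing human CTR2.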

Structure (SMILES)	pEC50 [1]	pEC50 [2]
CC[C@H](C)[C@@H](C(=O)N[C@@H](CC(C)C)C(=O)N[C@@H](CO)C(=O)N[C@@H](CO)C(=O)N[C@H](C(=O)N[C@@H](CCC(=O)O)C(=O)N[C@H](C(=O)NCC(=O)N[C@@H](CO)C(=O)NCC(=O)N[C@H](C(=O)N1C[C@H](O)C[C@H]1C(N)=O)[C@@H](C)O)C(C)C)[C@@H](C)O)N(C)C(=O)[C@H](C)NC(=O)CN(C)C(=O)[C@H](Cc1ccccc1)NC(=O)[C@H](CO)NC(=O)[C@H](CO)NC(=O)[C@H](CCCNC(=N)N)NC(=O)[C@H](CCC(N)=O)NC(=O)[C@H](CC(C)C)NC(=O)[C@H](Cc1ccccc1)NC(=O)[C@H](Cc1c[nH]cn1)NC(=O)[C@H](C)NC(=O)[C@H](CC(C)C)NC(=O)[C@H](CCCNC(=N)N)NC(=O)[C@H](CCC(=O)O)NC(=O)[C@@H](NC(=O)[C@H](C)NC(=O)[C@@H]1CSSC[C@H](NC(=O)[C@H](CCCNC(=N)N)NC(=O)CC[C@H](NC(=O)CCCCCCCCCCCCCCCCCCC(=O)O)C(=O)O)C(=O)N2CCC[C@H]2C(=O)N[C@@H]([C@@H](C)O)C(=O)N[C@@H](C)C(=O)N[C@@H]([C@@H](C)O)C(=O)N1)[C@@H](C)O [Compound 72, [19CD]-isoGlu-R-C( )-PTAT-C( )-ATERLAHFLQRSSF-Gly(Me)-A-Ile(Me)-LSSTEVGSGT-Hyp-NH2] ({C20 diacid-γGlu}-RCPTATCATERLAHFLQRSSF[Sar]A[NMeI]LSSTEVGSGT[Hyp]-NH2; disulfide 2-7)	9.57	9.46
CC[C@H](C)[C@@H](C(=O)N[C@@H](CC(C)C)C(=O)N[C@@H](CO)C(=O)N[C@@H](CO)C(=O)N[C@H](C(=O)N[C@@H](CCC(=O)O)C(=O)N[C@H](C(=O)NCC(=O)N[C@@H](CO)C(=O)N[C@H](C(=O)N[C@H](C(=O)N1C[C@H](O)C[C@H]1C(N)=O)[C@@H](C)O)[C@@H](C)O)C(C)C)[C@@H](C)O)N(C)C(=O)[C@H](C)NC(=O)CN(C)C(=O)[C@H](Cc1ccccc1)NC(=O)[C@H](CO)NC(=O)[C@H](CO)NC(=O)[C@H](CCCNC(=N)N)NC(=O)[C@H](CCC(N)=O)NC(=O)[C@H](CC(C)C)NC(=O)[C@H](Cc1ccccc1)NC(=O)[C@H](Cc1c[nH]cn1)NC(=O)[C@H](C)NC(=O)[C@H](CC(C)C)NC(=O)[C@H](CCCNC(=N)N)NC(=O)[C@H](CCC(N)=O)NC(=O)[C@@H](NC(=O)[C@H](C)NC(=O)[C@@H]1CSSC[C@H](NC(=O)[C@H](CCCNC(=N)N)NC(=O)CC[C@H](NC(=O)CCCCCCCCCCCCCCCCCCC(=O)O)C(=O)O)C(=O)N[C@@H](CC(N)=O)C(=O)N[C@@H]([C@@H](C)O)C(=O)N[C@@H](C)C(=O)N[C@@H]([C@@H](C)O)C(=O)N1)[C@@H](C)O [Compound 73, [19CD]-isoGlu-R-C( )-NTAT-C( )-ATQRLAHFLQRSSF-Gly(Me)-A-Ile(Me)-LSSTEVGSTT-Hyp-NH2] ({C20 diacid-γGlu}-RCNTATCATQRLAHFLQRSSF[Sar]A[NMeI]LSSTEVGSTT[Hyp]-NH2; disulfide 2-7)	9.62	9.92
CC[C@H](C)[C@@H](C(=O)N[C@@H](CC(C)C)C(=O)N[C@@H](CO)C(=O)N[C@@H](CO)C(=O)N[C@H](C(=O)N[C@@H](CCC(=O)O)C(=O)N[C@H](C(=O)NCC(=O)N[C@@H](CO)C(=O)N[C@@H](CCCC(=O)O)C(=O)N[C@H](C(=O)N1C[C@H](O)C[C@H]1C(N)=O)[C@@H](C)O)C(C)C)[C@@H](C)O)N(C)C(=O)[C@H](C)NC(=O)CN(C)C(=O)[C@H](Cc1ccccc1)NC(=O)[C@H](CO)NC(=O)[C@H](CO)NC(=O)[C@H](CCCNC(=N)N)NC(=O)[C@H](CCC(N)=O)NC(=O)[C@H](CC(C)C)NC(=O)[C@H](Cc1ccccc1)NC(=O)[C@H](Cc1c[nH]cn1)NC(=O)[C@H](C)NC(=O)[C@H](CC(C)C)NC(=O)[C@H](CCCNC(=N)N)NC(=O)[C@H](CCC(N)=O)NC(=O)[C@@H](NC(=O)[C@H](C)NC(=O)[C@@H]1CSSC[C@H](NC(=O)[C@H](CCCNC(=N)N)NC(=O)CC[C@H](NC(=O)CCCCCCCCCCCCCCCCCCC(=O)O)C(=O)O)C(=O)N[C@@H](CC(N)=O)C(=O)N[C@@H]([C@@H](C)O)C(=O)N[C@@H](C)C(=O)N[C@@H]([C@@H](C)O)C(=O)N1)[C@@H](C)O [Compound 75, [19CD]-isoGlu-R-C( )-NTAT-C( )-ATQRLAHFLQRSSF-Gly(Me)-A-Ile(Me)-LSSTEVGS-Aad-T-Hyp-NH2] ({C20 diacid-γGlu}-RCNTATCATQRLAHFLQRSSF[Sar]A[NMeI]LSSTEVGS[Aad]T[Hyp]-NH2; disulfide 2-7)	9.59	9.44
CC[C@H](C)[C@@H](C(=O)N[C@@H](CC(C)C)C(=O)N[C@@H](CO)C(=O)N[C@@H](CO)C(=O)N[C@H](C(=O)N[C@@H](CCC(=O)O)C(=O)N[C@H](C(=O)NCC(=O)N[C@@H](CO)C(=O)N[C@@H](CC(N)=O)C(=O)N[C@H](C(=O)N1CCC[C@H]1C(N)=O)[C@@H](C)O)C(C)C)[C@@H](C)O)N(C)C(=O)[C@H](C)NC(=O)CN(C)C(=O)[C@H](Cc1ccccc1)NC(=O)[C@H](CO)NC(=O)[C@H](CO)NC(=O)[C@H](CCCNC(=N)N)NC(=O)[C@H](CCC(N)=O)NC(=O)[C@H](CC(C)C)NC(=O)[C@H](Cc1ccccc1)NC(=O)[C@H](Cc1c[nH]cn1)NC(=O)[C@H](C)NC(=O)[C@H](CC(C)C)NC(=O)[C@H](CCCNC(=N)N)NC(=O)[C@H](CCC(=O)O)NC(=O)[C@@H](NC(=O)[C@H](C)NC(=O)[C@@H]1CSSC[C@H](NC(=O)[C@H](CCCNC(=N)N)NC(=O)CC[C@H](NC(=O)CCCCCCCCCCCCCCCCCCC(=O)O)C(=O)O)C(=O)NCC(=O)N[C@@H]([C@@H](C)O)C(=O)N[C@@H](C)C(=O)N[C@@H]([C@@H](C)O)C(=O)N1)[C@@H](C)O [Compound 78, [19CD]-isoGlu-R-C( )-GTAT-C( )-ATERLAHFLQRSSF-Gly(Me)-A-Ile(Me)-LSSTEVGSNTP-NH2] ({C20 diacid-γGlu}-RCGTATCATERLAHFLQRSSF[Sar]A[NMeI]LSSTEVGSNTP-NH2; disulfide 2-7)	9.62	9.82
CC[C@H](C)[C@@H](C(=O)N[C@@H](CC(C)C)C(=O)N[C@@H](CO)C(=O)N[C@@H](CO)C(=O)N[C@H](C(=O)N[C@@H](CCC(=O)O)C(=O)N[C@H](C(=O)NCC(=O)N[C@@H](CO)C(=O)N[C@H](C(=O)N[C@H](C(=O)N1CCC[C@H]1C(N)=O)[C@@H](C)O)[C@@H](C)O)C(C)C)[C@@H](C)O)N(C)C(=O)[C@H](C)NC(=O)CN(C)C(=O)[C@H](Cc1ccccc1)NC(=O)[C@H](CO)NC(=O)[C@H](CO)NC(=O)[C@H](CCCNC(=N)N)NC(=O)[C@H](CCC(N)=O)NC(=O)[C@H](CC(C)C)NC(=O)[C@H](Cc1ccccc1)NC(=O)[C@H](CC(=O)O)NC(=O)[C@H](C)NC(=O)[C@H](CC(C)C)NC(=O)[C@H](CCCNC(=N)N)NC(=O)[C@H](CCC(N)=O)NC(=O)[C@@H](NC(=O)[C@H](C)NC(=O)[C@@H]1CSSC[C@H](NC(=O)[C@H](CCCNC(=N)N)NC(=O)CC[C@H](NC(=O)CCCCCCCCCCCCCCCCCCC(=O)O)C(=O)O)C(=O)N[C@@H](CC(N)=O)C(=O)N[C@@H]([C@@H](C)O)C(=O)N[C@@H](C)C(=O)N[C@@H]([C@@H](C)O)C(=O)N1)[C@@H](C)O [Compound 82, [19CD]-isoGlu-R-C( )-NTAT-C( )-ATQRLADFLQRSSF-Gly(Me)-A-Ile(Me)-LSSTEVGSTTP-NH2] ({C20 diacid-γGlu}-RCNTATCATQRLADFLQRSSF[Sar]A[NMeI]LSSTEVGSTTP-NH2; disulfide 2-7)	9.28	9.68
CC[C@H](C)[C@@H](C(=O)N[C@@H](CC(C)C)C(=O)N[C@@H](CO)C(=O)N[C@@H](CO)C(=O)N[C@H](C(=O)N[C@@H](CCC(=O)O)C(=O)N[C@H](C(=O)NCC(=O)N[C@@H](CO)C(=O)N[C@H](C(=O)N[C@H](C(=O)N1C[C@H](O)C[C@H]1C(N)=O)[C@@H](C)O)[C@@H](C)O)C(C)C)[C@@H](C)O)N(C)C(=O)[C@H](C)NC(=O)CN(C)C(=O)[C@H](Cc1ccccc1)NC(=O)[C@H](CO)NC(=O)[C@H](CO)NC(=O)[C@H](CCCNC(=N)N)NC(=O)[C@H](CCC(N)=O)NC(=O)[C@H](CC(C)C)NC(=O)[C@H](Cc1ccccc1)NC(=O)[C@H](CC(=O)O)NC(=O)[C@H](C)NC(=O)[C@H](CC(C)C)NC(=O)[C@H](CCCNC(=N)N)NC(=O)[C@H](CCC(N)=O)NC(=O)[C@@H](NC(=O)[C@H](C)NC(=O)[C@@H]1CSSC[C@H](NC(=O)[C@H](CCCNC(=N)N)NC(=O)CC[C@H](NC(=O)CCCCCCCCCCCCCCCCCCC(=O)O)C(=O)O)C(=O)N[C@@H](CC(N)=O)C(=O)N[C@@H]([C@@H](C)O)C(=O)N[C@@H](C)C(=O)N[C@@H]([C@@H](C)O)C(=O)N1)[C@@H](C)O [Compound 83, [19CD]-isoGlu-R-C( )-NTAT-C( )-ATQRLADFLQRSSF-Gly(Me)-A-Ile(Me)-LSSTEVGSTT-Hyp-NH2] ({C20 diacid-γGlu}-RCNTATCATQRLADFLQRSSF[Sar]A[NMeI]LSSTEVGSTT[Hyp]-NH2; disulfide 2-7)	9.49	9.89
